Laboratory results taken from US9862680B2, “Peripherally substituted monocyclic beta-lactams” (University of Notre Dame du Lac, priority 2016, dated 2018).

Legend:
PAM 2035 = experiment: β-lactamase inhibition, Ki by enzyme kinetics; type: biochemical; settings: PAM 2035, class C
NDM-1 = target: T1, NDM-1 (Klebsiella pneumoniae, UniProt C7C422); experiment: β-lactamase inhibition, Ki by enzyme kinetics (imipenem); type: biochemical; settings: NDM-1, class B
T1 construct: purchased Emerald Bioscience
T1 sequence (C7C422 29-270 limits assumed): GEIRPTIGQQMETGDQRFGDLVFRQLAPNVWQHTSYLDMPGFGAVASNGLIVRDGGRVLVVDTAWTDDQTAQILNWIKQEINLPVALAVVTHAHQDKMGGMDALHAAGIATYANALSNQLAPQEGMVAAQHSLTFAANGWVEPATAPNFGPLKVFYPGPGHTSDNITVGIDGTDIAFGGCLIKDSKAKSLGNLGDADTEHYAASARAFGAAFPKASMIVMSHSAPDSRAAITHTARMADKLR
Protocol: (§1) The enzymes KPC-2, Oxa-48, AmpC and NDM-1 were purchased from Emerald Bioscience and the enzymes CTX-14 and SHV-12 were expressed and purified from E. coli at Rempex pharmaceutical (San Diego, Calif.).
(§2) To the first row of a 2-mL deep 96-well block was added 1 mL of 50 mM sodium phosphate buffer at pH 7 with 0.1 mg/mL BSA (bovine serum albumin). To the first row was added an appropriate amount of a 10 mg/mL solution of the compound to be tested to make a 640 μM (4×) solution. Each of the other wells in the 96-well block were charged with 750 μL of the aforementioned buffer. The rows were then repeatedly diluted 1:3 so that the final concentrations of the individual 96-well plates would range in concentrations from 160 μM to 3 nM (8 dilutions). The master block was then used to add 50 pt to each corresponding well in the 96-well flat-bottom plate. An additional 50 of buffer was added to each well. Once the plates were prepared, 50 μL of the enzyme to be tested against were added in buffer to each well [KPC-2 (0.147 mg/mL), CTX-M-14 (0.102 mg/mL), […] (0.331 mg/mL), AmpC (0.699 mg/mL), SHV-12 (0.111 mg/mL), NDM-1 (0.110 mg/mL)]. The plates were incubated at rt for 10 min before 50 μL. of an appropriate indicator were added to each well and the optical density at 495 nm was measured over time. For each enzyme, other than NDM-1, nitrocefin was used. Nitrocefin (10 μM for SHV-12, 50 μM for the other enzymes), was appropriate because when cleaved by a β-lactamase, the color changes from yellow to red. For NDM-1, imipenem (10 μM) was the indicator of choice. Rather than observe the growing presence of optical density at 495 nm, as with nitrocefin, the disappearance of imipenem was monitored. The inhibition curves were monitored and used to perform enzyme kinetics according to Waley to determine the Ki (μM) of each compound against the β-lactamases screened.

SHV-12 = target: T2, SHV-12 (Klebsiella pneumoniae, UniProt P0AD64, E235K/G234S/L31Q); experiment: β-lactamase inhibition, Ki by enzyme kinetics (nitrocefin); type: biochemical; settings: SHV-12, class A
T2 construct: host or cells: E. coli
T2 sequence (P0AD64 22-286 L31Q/G234S/E235K): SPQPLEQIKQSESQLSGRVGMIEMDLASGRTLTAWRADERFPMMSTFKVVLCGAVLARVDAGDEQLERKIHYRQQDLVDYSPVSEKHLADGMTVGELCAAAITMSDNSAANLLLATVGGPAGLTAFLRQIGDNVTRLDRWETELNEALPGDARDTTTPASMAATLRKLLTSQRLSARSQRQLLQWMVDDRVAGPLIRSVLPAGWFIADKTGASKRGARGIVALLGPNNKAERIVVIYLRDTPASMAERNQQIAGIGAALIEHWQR
Protocol: as §1, §2

AmpC = experiment: as above; type: biochemical; settings: class C
Protocol: as §1, §2

Oxa-48 = target: T3, Oxa-48 (Klebsiella pneumoniae, UniProt Q6XEC0); experiment: as above; type: biochemical; settings: Oxa-48, class D
T3 construct: purchased Emerald Bioscience
T3 sequence (Q6XEC0 23-265 limits assumed): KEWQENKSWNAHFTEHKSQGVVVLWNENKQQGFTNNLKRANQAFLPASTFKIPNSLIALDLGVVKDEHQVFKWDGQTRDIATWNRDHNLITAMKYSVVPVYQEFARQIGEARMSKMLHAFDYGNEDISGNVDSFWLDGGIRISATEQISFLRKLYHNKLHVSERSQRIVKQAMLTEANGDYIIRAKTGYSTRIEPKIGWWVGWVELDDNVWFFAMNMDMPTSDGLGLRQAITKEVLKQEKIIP
Protocol: as §1, §2

KPC-2 = target: T4, KPC-2 (Klebsiella pneumoniae, UniProt Q9F663); experiment: as above; type: biochemical; settings: KPC-2, class A
T4 construct: purchased Emerald Bioscience
T4 sequence (Q9F663 25-293 limits assumed): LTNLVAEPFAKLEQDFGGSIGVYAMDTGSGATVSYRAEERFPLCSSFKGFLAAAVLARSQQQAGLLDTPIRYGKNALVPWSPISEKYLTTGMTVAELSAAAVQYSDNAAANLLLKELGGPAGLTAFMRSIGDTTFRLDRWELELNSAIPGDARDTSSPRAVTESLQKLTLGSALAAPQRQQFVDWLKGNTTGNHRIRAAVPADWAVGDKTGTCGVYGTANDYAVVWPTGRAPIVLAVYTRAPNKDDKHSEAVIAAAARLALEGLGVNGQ
Protocol: as §1, §2

CTX-M-14 = target: T5, CTX-M-14 (Escherichia coli, UniProt Q9L5C7); experiment: as above; type: biochemical; settings: CTX-M-14, class A
T5 construct: host or cells: E. coli
T5 sequence (Q9L5C7 entry or part of it): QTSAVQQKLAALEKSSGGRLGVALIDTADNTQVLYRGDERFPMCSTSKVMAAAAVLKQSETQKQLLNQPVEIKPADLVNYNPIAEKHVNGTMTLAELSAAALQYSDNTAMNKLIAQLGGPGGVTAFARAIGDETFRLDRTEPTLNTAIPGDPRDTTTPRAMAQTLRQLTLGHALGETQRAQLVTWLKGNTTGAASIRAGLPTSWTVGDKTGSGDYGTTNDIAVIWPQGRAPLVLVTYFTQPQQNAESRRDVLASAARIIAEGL
Protocol: as §1, §2

P. Aeruginosa K799/wt = experiment: Agar diffusion assay (modified Kirby-Bauer); type: cell-based; settings: P. Aeruginosa K799/wt (wild type); 2 mM solution, 50 μL in 9.0 mm well; P unclear, V very unclear zone, * slightly misshapen zone
Protocol: (§3) Antibacterial activity of the compounds was determined by a modified Kirby-Bauer^27-28 agar-diffusion assay. Overnight cultures of test organisms were grown in LB broth for 18-24h and standard suspensions of […] were prepared in saline solution (0.9% NaCl) according to a 0.5 BaSO4 McFarland Standard. This standardized suspension (0.1 mL) was added to 34 mL of sterile, Mueller Hinton No. 2 agar tempered to 47-50° C. After gentle mixing, the inoculated agar media was poured into a sterile plastic petri dish (145 mm×20 mm) and allowed to solidify near a flame with the lid cracked for 30 min. Wells of 9.0 mm diameter were cut from the petri dish agar and filled with exactly 50 μL of the test sample solution. For studies using mixtures of compounds, both test compounds were diluted to equal concentrations and 50 μL of the mixed compound solution was added to the cut well. The petri dish was incubated at 37° C. for 18-24 h and the inhibition zone diameters were measured (mm) with an electronic caliper after 24-48 h.
(§4) All compound-containing solutions were prepared by first making a 20 mM solution of the compound in DMSO and then diluting that solution 10-fold with MeOH to give the final 2 mM solution used in the assay.
(§5) Plates were incubated after inoculation at 37° C. for 20 hours. Plates were photographed after 1 day. M. vaccae required a longer incubation time, 48 hours, and was photographed after 3 days.

A. Baumannii ATCC 17961 = experiment: Agar diffusion assay (modified Kirby-Bauer); type: cell-based; settings: 50 μL in 9.0 mm well, P unclear, V very unclear zone, * slightly misshapen zone; for Zone of Growth Inhibition: 2 mM solution
Protocol: as §3, §4, §5

E. Coli DC2 = experiment: Agar diffusion assay (modified Kirby-Bauer); type: cell-based; settings: E. Coli DC2, 2 mM solution, 50 μL in 9.0 mm well, P unclear, V very unclear zone, * slightly misshapen zone
Protocol: as §3, §4, §5

B. Dolosa AU 0018 = experiment: Agar diffusion assay (modified Kirby-Bauer); type: cell-based; settings: 2 mM solution, 50 μL in 9.0 mm well, P unclear, V very unclear zone, * slightly misshapen zone
Protocol: as §3, §4, §5

P. Aeruginosa K799/61 = experiment: Agar diffusion assay (modified Kirby-Bauer); type: cell-based; settings: P. Aeruginosa K799/61 (permeability mutant); 2 mM solution, 50 μL in 9.0 mm well; P unclear, V very unclear zone, * slightly misshapen zone
Protocol: as §3, §4, §5

E. Coli DC0 = experiment: Agar diffusion assay (modified Kirby-Bauer); type: cell-based; settings: 2 mM solution, 50 μL in 9.0 mm well, P unclear, V very unclear zone, * slightly misshapen zone
Protocol: as §3, §4, §5

S. Aureus SG511 = experiment: Agar diffusion assay (modified Kirby-Bauer); type: cell-based; settings: 2 mM solution, 50 μL in 9.0 mm well, P unclear, V very unclear zone, * slightly misshapen zone
Protocol: as §3, §4, §5

M. Luteus ATCC 10240 = experiment: Agar diffusion assay (modified Kirby-Bauer); type: cell-based
Protocol: as §3, §4, §5

M. Vaccae IMET 10670 = experiment: Agar diffusion assay (modified Kirby-Bauer); type: cell-based; settings: 2 mM solution, 50 μL in 9.0 mm well, 48 hours incubation, P unclear, V very unclear zone, * slightly misshapen zone
Protocol: as §3, §4, §5

B. Subtilis ATCC 6633 = experiment: Agar diffusion assay (modified Kirby-Bauer); type: cell-based; settings: 50 μL in 9.0 mm well, P unclear, V very unclear zone, * slightly misshapen zone; for Zone of Growth Inhibition: 2 mM solution
Protocol: as §3, §4, §5

[1] = system: panel of Gram-positive and Gram-negative bacteria; experiment: Kirby-Bauer agar diffusion assays, results in words; type: cell-based
Protocol: as §3, §4, §5

[2] = system: panel of Gram-positive and Gram-negative bacteria; experiment: MIC determination; type: cell-based; settings: same panel of Gram-positive and Gram-negative bacteria, all values
[3] = M. Luteus ATCC 10240, 2 mM solution, 50 μL in 9.0 mm well, P unclear, V very unclear zone, * slightly misshapen zone
[4] = Escherichia coli, read-out: Zone of Growth Inhibition

CC(C)c1cc(C(C)C)c(S(=O)(=O)ON2C(=O)CC2CBr)c(C(C)C)c1 (stereo not shown) [Compound 61d]
Ki (PAM 2035): > 160 µM | Ki (NDM-1): > 160 µM | Ki (SHV-12): > 160 µM | Ki (AmpC): > 160 µM | Ki (Oxa-48): > 160 µM | Ki (KPC-2): > 160 µM | Ki (CTX-M-14): > 160 µM | Zone of Growth Inhibition (P. Aeruginosa K799/wt): 0 mm | Zone of Growth Inhibition (A. Baumannii ATCC 17961): 0 mm | Zone of Growth Inhibition (E. Coli DC2): 0 mm | Zone of Growth Inhibition (B. Dolosa AU 0018): 0 mm | Zone of Growth Inhibition (P. Aeruginosa K799/61): 0 mm | Zone of Growth Inhibition (E. Coli DC0): 0 mm

Cc1ccc(S(=O)(=O)ON2C(=O)CC2CBr)cc1 (stereo not shown) [Compound 61g]
Zone of Growth Inhibition (S. Aureus SG511): 18V | Zone of Growth Inhibition (P. Aeruginosa K799/wt): 0 mm | Zone of Growth Inhibition (A. Baumannii ATCC 17961): 13.5 mm | Zone of Growth Inhibition (M. Luteus ATCC 10240; [3]): 16P | Zone of Growth Inhibition (E. Coli DC2): 0 mm | Zone of Growth Inhibition (M. Vaccae IMET 10670): 19V | Zone of Growth Inhibition (B. Dolosa AU 0018): 0 mm | Zone of Growth Inhibition (P. Aeruginosa K799/61): 0 mm | Zone of Growth Inhibition (B. Subtilis ATCC 6633): 0 mm | Zone of Growth Inhibition (E. Coli DC0): 0 mm

O=C1CC(CBr)N1OS(=O)(=O)c1ccc([N+](=O)[O-])cc1[N+](=O)[O-] (stereo not shown) [Compound 61f]
Zone of Growth Inhibition (S. Aureus SG511): 21P | Zone of Growth Inhibition (P. Aeruginosa K799/wt): 0 mm | Zone of Growth Inhibition (A. Baumannii ATCC 17961): 16V | Zone of Growth Inhibition (M. Luteus ATCC 10240; [3]): 18P | Zone of Growth Inhibition (E. Coli DC2): 16P | Zone of Growth Inhibition (M. Vaccae IMET 10670): 28 mm | Zone of Growth Inhibition (B. Dolosa AU 0018): 0 mm | Zone of Growth Inhibition (P. Aeruginosa K799/61): 0 mm | Zone of Growth Inhibition (B. Subtilis ATCC 6633): 22 mm | Zone of Growth Inhibition (E. Coli DC0): 0 mm

COC(=O)CSCC1C(NC(=O)Cc2ccccc2)C(=O)N1S(=O)(=O)[O-].[K+] (racemic) [Compound 29]
antibacterial activity ([1]; agar diffusion, overall): did not show any activity

CN(C)c1cccc2c(S(=O)(=O)ON3C(=O)CC3CBr)cccc12 (stereo not shown) [Compound 61h]
Zone of Growth Inhibition (S. Aureus SG511): 15* mm | Zone of Growth Inhibition (P. Aeruginosa K799/wt): 0 mm | Zone of Growth Inhibition (A. Baumannii ATCC 17961): 0 mm | Zone of Growth Inhibition (E. Coli DC2): 0 mm | Zone of Growth Inhibition (B. Dolosa AU 0018): 0 mm | Zone of Growth Inhibition (P. Aeruginosa K799/61): 0 mm | Zone of Growth Inhibition (E. Coli DC0): 0 mm

CC(C)(ON=C(C(=O)NC1C(=O)N(S(=O)(=O)[O-])C1CSCCN)c1cnc(N)s1)C(=O)O.[K+] (racemic) [Compound 48]
antibacterial activity against Gram-negative bacteria ([1]; agar diffusion, Gram-negative bacteria): very interesting activity | Zone of Growth Inhibition (S. Aureus SG511): 0 mm | Zone of Growth Inhibition (P. Aeruginosa K799/wt): 18P | Zone of Growth Inhibition (A. Baumannii ATCC 17961): 12P | Zone of Growth Inhibition (M. Luteus ATCC 10240; [3]): 26P | antibacterial activity (M. Luteus ATCC 10240; on the Gram-positive M. luteus): very interesting activity | Zone of Growth Inhibition (E. Coli DC2): 28 mm | Zone of Growth Inhibition (M. Vaccae IMET 10670): 0 mm | Zone of Growth Inhibition (B. Dolosa AU 0018): 15 mm | Zone of Growth Inhibition (B. Subtilis ATCC 6633): 0 mm | Zone of Growth Inhibition (E. Coli DC0): 26 mm

O=C1CC(CBr)N1OS(=O)(=O)c1ccc([N+](=O)[O-])cc1 (stereo not shown) [Compound 61e]
Zone of Growth Inhibition (S. Aureus SG511): 0 mm | Zone of Growth Inhibition (P. Aeruginosa K799/wt): 0 mm | Zone of Growth Inhibition (A. Baumannii ATCC 17961): 0 mm | Zone of Growth Inhibition (M. Luteus ATCC 10240; [3]): 0 mm | Zone of Growth Inhibition (E. Coli DC2): 0 mm | Zone of Growth Inhibition (M. Vaccae IMET 10670): 0 mm | Zone of Growth Inhibition (B. Dolosa AU 0018): 0 mm | Zone of Growth Inhibition (P. Aeruginosa K799/61): 12.6* mm | Zone of Growth Inhibition (E. Coli DC0): 0 mm

CO/N=C(\C(=O)N[C@@H]1C(=O)N(S(=O)(=O)[O-])[C@H]1CSCCNC(=O)OC(C)(C)C)c1cnc(N)s1.[K+] [Compound 43]
MIC [2]: > 50 µM | antibacterial activity ([1]; against B. subtilis and the permeability mutant forms of P. aeruginosa and E. coli): moderate activity | antibacterial activity ([1]; corresponding wild strains of P. aeruginosa and E. coli): inactivity | zone of inhibition at 2000 µM (S. Aureus SG511; Staphylococcus aureus, read-out: Zone of Growth Inhibition): 0 mm | Zone of Growth Inhibition (P. Aeruginosa K799/wt): 0ppt | zone of inhibition at 2000 µM (A. Baumannii ATCC 17961; Acinetobacter baumannii, ATCC17961, 2 mM solution, read-out: Zone of Growth Inhibition): 0 mm | zone of inhibition at 2000 µM (M. Luteus ATCC 10240; Micrococcus luteus, ATCC10240, M. Luteus ATCC 10240, 2 mM solution, 50 μL in 9.0 mm well, P unclear, V very unclear zone, * slightly misshapen zone, read-out: Zone of Growth Inhibition): 0 mm | zone of inhibition at 2000 µM (E. Coli DC2; [4]): 29 mm | zone of inhibition at 2000 µM (M. Vaccae IMET 10670; Mycolicibacterium vaccae, read-out: Zone of Growth Inhibition): 0 mm | zone of inhibition at 2000 µM (B. Dolosa AU 0018; Burkholderia dolosa, read-out: Zone of Growth Inhibition): 0 mm | zone of inhibition at 2000 µM (B. Subtilis ATCC 6633; Bacillus subtilis, ATCC6633, 2 mM solution, read-out: Zone of Growth Inhibition): 18 mm | zone of inhibition at 2000 µM (E. Coli DC0; [4]): 0 mm
